Data taken from patent US10151756B2, “Predictive markers for polyamine inhibitor cancer therapies” (ARIZONA BOARD OF REGENTS ON BEHALF OF UNIVERSITY OF ARIZONA, priority 2012, dated 2018).
“Also recorded” adds a separate entry of the source.

Assays:
[1] = in vivo; cited from earlier work
[2] = test system: tumors harboring Ki-ras mutations; conditions: AOM-treated rats; reduced from 90%; cited from earlier work
[3] = cited from earlier work
[4] = cited from earlier work; remark: listed apart in the source
[5] = test system: colorectal cancer cells (HCT116); test: Non-coding RNA microarray of DFMO treated vs untreated cells; format: cell-based, human; conditions: 96 h
Experimental: (§1) HCT116 cells were grown in DMEM media supplemented with 10% fetal bovine serum and cultured at 37° C. For reverse transcription, total RNA was extracted using mirVana RNA isolation kit and reverse transcription performed using Taqman Small RNA Assays with predesigned primer specific to mature let-7 (Applied Biosystems). […] Western blots were conducted using anti-HMGA2 (Cell Signaling), LIN28 (abcam), anti-V5 (Invitrogen), eIF5A1 (Epitomics), and Actin (Sigma). Locked Nucleic Acid (LNA) anti-sense oligos were purchased from Exiqon and directed against seed region of let-7 as described previously (Obad et al., 2011). Pre-designed Silencer Select siRNAs (Invitrogen) were obtained to specifically knockdown eIFSA isoforms. All transfections were conducted using Lipofectamine 2000 as described by manufacturer for up to 48 h. All bars show mean±s.d and statistical analysis was performed by using Student's t-test (*P<0.05; **P<0.01, ***P<0.001).
Non-Coding RNA Microarray.
Samples for miRNA profiling studies were processed by Asuragen Services (Austin, Tex.), according to the company's standard operating procedures. Following incoming sample quality control (QC) assessment, the 3′ ends of RNA molecules in total RNA samples were labeled with biotin according to the company's standard protocol. Labeled RNA (100 ng total RNA per sample) was purified and hybridized to Affymetrix GeneChip® miRNA Arrays (Affymetrix, Santa Clara, Calif.). Hybridization, washing, staining, imaging, and signal extraction were performed according to Affymetrix-recommended procedures. Arrays were scanned on an Affymetrix GeneChip® Scanner 3000 7G.
Signal Processing. The signal processing implemented for the Affymetrix miRChip is a multi-step process involving probe specific signal detection calls, background estimate and correction. For each probe, a global robust multichip average (RMA) background correction is performed with Median Polish summarization. Arrays within a specific analysis experiment are normalized together using Quantile normalization. Detection calls are based on a Wilcoxon rank-sum test of the miRNA probe signal compared to the distribution of signals from GC-content matched anti-genomic probes. The raw gene expression data (.cel files) were converted to expression values using the miRNAQCTool, an open-source package available through Affymetrix. […]. RMA selection was used as a normalization method. Permutation P-values were then calculated for the t-test comparison between the DFMO treated and untreated placebo plates. These P-values were then ranked and a candidate gene list was compiled, using false discovery rate (FDR), adjusted P-value cut-offs obtained by the linear step-up method described by Benjamini and Hochberg (1995).
Next, the mechanism by which polyamines modulate oncogenesis and the effects of polyamine depletion on non-coding RNA levels was investigated by using a non-coding RNA microarray platform containing 15,644 probes, which included 1105 human mature miRNAs. MicroRNAs (miRNAs) are small endogenous RNA species known to modulate cellular signaling predominantly by binding the 3′ untranslated region (UTR) of RNA species. Binding of miRNAs to its cognate target generally results in mRNA destabilization or translational repression (Filipowicz et al., 2008). As a result of the abilities of miRNAs to modulate signaling networks involved in both development and neoplastic diseases, miRNAs serve as attractive targets for disease intervention.

colon cancer cells = test: Measurements of intracellular polyamine content (HPLC); format: cell-based, human
Excerpt: Measurements of Intracellular Polyamine Content.
Cells were homogenized in 0.2 N HClO4. Acid-soluble and acid insoluble fractions were used to determine intracellular polyamines and protein content, respectively.
It was hypothesized that the polyamines, acting independently or via eIFSA, might affect levels of non-coding RNAs.

HCT116 cells = test: Cellular proliferation and viability (Vi-Cell counter, trypan blue exclusion); format: cell-based, human
Experimental: Cellular Proliferation. […] At each time point, cells were trypsinized with 500 μL of trypsin and resuspended with 1.5 mL DMEM supplemented with FBS. One milliliter of the resuspension was then loaded and analyzed using a Beckman-Coulter Vi-Cell Counter. Cellular viability was measured through the trypan blue exclusion assay.

hsa-let-7i = test: Real-time quantitative RT-PCR of mature let-7i; format: cell-based, human
Experimental: as §1, with “Locked Nucleic Acid (LNA) anti-sense oligos were purchased from Exiqon and directed against seed region of let-7 as described previously (Obad et al., 2011).” left out, “All transfections were conducted using Lipofectamine 2000 as described by manufacturer for up to 48 h.” left out
RNA Isolation and Real-Time Quantitative RT-PCR.
Total RNA was extracted from cells using the miRVana RNA isolation kit (Ambion) and measured using Thermo Scientific NanoDrop 2000. miRNA levels were measured using an Applied Biosystems 7500 HT PCR instrument with Taqman microRNA assay kits. Controlled reactions were confirmed by excluding reverse transcriptase to confirm amplification from cDNA. Results were analyzed using comparative Ct method between untreated and treated cells. Statistical analysis was performed using two tailed Student's t-tests.

HMGA2 = test: Immunoblot of HMGA2 protein in HCT116 cells; format: cell-based, human
Experimental: as §1, with “Locked Nucleic Acid (LNA) anti-sense oligos were purchased from Exiqon and directed against seed region of let-7 as described previously (Obad et al., 2011).” left out, “All transfections were conducted using Lipofectamine 2000 as described by manufacturer for up to 48 h.” left out
(§2) Immunoblot Analysis and Quantification of Western Blot Results.
(§3) Protein concentrations were determined using BCA assay (Pierce). […] Membranes were washed three times for 10 min and subsequently secondary antibodies were incubated with anti-mouse and anti-rabbit horseradish peroxidase conjugated antibodies (Santa Cruz Biotechnologies). Proteins were visualized by chemoluminescence using Amersham Plus ECL reagent (GE Healthcare). Bands were quantified via Western blot analysis by applying ImageJ software analysis. […] Briefly, areas under the curves were assessed for each specific band and comparisons were calculated by setting corresponding control values as 100% and each condition corrected by actin.
(§4) The LNA probes were purchased from Exiqon and synthesized using a phosphorothioate backbone.

LIN28 = test: Immunoblot of LIN28 protein in HCT116 cells; format: cell-based, human
Experimental: as §1, with “Locked Nucleic Acid (LNA) anti-sense oligos were purchased from Exiqon and directed against seed region of let-7 as described previously (Obad et al., 2011).” left out, “All transfections were conducted using Lipofectamine 2000 as described by manufacturer for up to 48 h.” left out
as §2, §3, §4

Hmga2 3′ UTR = test: Hmga2 3' UTR luciferase reporter assay; format: cell-based
Experimental: Luciferase Reporter Assays.
Hmga2 3′ UTR reporter plasmids were obtained from Addgene (Plasmid 14785) and have been characterized in previous studies (Mayr et al., 2007). A mutated Hmga2 reporter plasmid with disrupted let-7 complementary sites was also obtained (Addgene plasmid 14792). HCT116 cells were transfected in 6-well plates with 1.5 μg firefly luciferase and 1.5 μg Hmga2 Renilla luciferase reporter plasmids. For functional analysis, 25 nM LNA directed against the let-7 family were transfected with appropriate plasmids. Firefly and renilla luciferase were measured 48 h after transfection using a Dual Luciferase Assay (Promega). Results were then normalized to firefly luciferase. Results are mean±SD.

tumor putrescine levels = conditions: rat-tumor model, DFMO infusion; cited from earlier work
prostoglandin E2 (PGE2) = conditions: 300 mg/day, one month; cited from earlier work

## Cc1ccc(-c2cc(C(F)(F)F)nn2-c2ccc(S(N)(=O)=O)cc2)cc1 [celecoxib, 4-[5-(4-Methylphenyl)-3-(trifluoromethyl)pyrazol-1-yl]benzenesulfonamide]
[1]
  increase in rates of heart and blood vessel disease: 30%
  risk of gastrointestinal side effects: greater than 80%

## CN1C(C(=O)Nc2ccccn2)=C(O)c2ccccc2S1(=O)=O [piroxicam, 4-hydroxy-2-methyl-N-2-pyridyl-2H-1,2-benzothiazine-3-carboxamide 1,1-dioxide]
[2]
  number of tumors harboring Ki-ras mutations: 25%

## CC1=C(CC(=O)O)c2cc(F)ccc2/C1=C\c1ccc([S+](C)[O-])cc1 (stereo not shown) [sulindac, (Z)-5-fluoro-2-methyl-1-((4 (methylsulfinyl)phenyl)methylene) 1H-indene-3-acetic acid]
[3]; administered with food
  time to peak plasma levels, with food: 3 to 4 h
[3]; after oral administration
  fraction of the drug absorbed: about 90%
[3]; fasting patients
  time to peak plasma levels, fasting: about 2 h
[4]; abdominal pain and nausea most frequent
  patients with mild gastrointestinal effects: ~20%
[4]; human, in vivo
  patients with skin rash and pruritus: 5%

## NCCCC(N)(C(=O)O)C(F)F (racemic) [DFMO, 2-(difluoromethyl)-dl-ornithine]
[5]; probe U8_st
  Mean Expression Level Treatment, probe U8_st: 8.90
[5]; probe U8_x_st
  Mean Expression Level Treatment, probe U8_x_st: 8.86
[5]; probe U13_st
  Mean Expression Level Treatment, probe U13_st: 9.81
[5]; probe U50B_st
  Mean Expression Level Treatment, probe U50B_st: 10.72
[5]; probe U50B_x_st
  Mean Expression Level Treatment, probe U50B_x_st: 9.86
[5]; probe hsa-let-7i_st
  Mean Expression Level Treatment, probe hsa-let-7i_st: 10.74
[5]; probe hsa-miR-22_st
  Mean Expression Level Treatment, probe hsa-miR-22_st: 10.38
[5]; probe hsa-miR-193b_st
  Mean Expression Level Treatment, probe hsa-miR-193b_st: 8.79
[5]; probe hsa-miR-200a-star_st
  Mean Expression Level Treatment, probe hsa-miR-200a-star_st: 4.89
[5]; probe hsa-miR-221_st
  Mean Expression Level Treatment, probe hsa-miR-221_st: 12.50
[5]; probe hsa-miR-494_st
  Mean Expression Level Treatment, probe hsa-miR-494_st: 12.64
[5]; probe hsa-miR-517a_st
  Mean Expression Level Treatment, probe hsa-miR-517a_st: 1.47
[5]; probe hsa-miR-720_st
  Mean Expression Level Treatment, probe hsa-miR-720_st: 14.63
[5]; probe hsa-miR-886-3p_st
  Mean Expression Level Treatment, probe hsa-miR-886-3p_st: 11.26
Colon cancer cells; colon cancer cells, 96 h of DFMO treatment (FIG. 1A)
  intracellular polyamine pools: depletion of putrescine and spermidine
HCT116 cells; DFMO treatment, trypan blue exclusion
  cellular viability levels: not altered
HCT116 cells; HCT116 cells, 5 mM DFMO (FIG. 1B)
  cellular proliferation: reduce cellular proliferation
hsa-let-7i; HCT116 cells treated with DFMO, maximal at 96 h (FIG. 1C)
  expression of mature let-7i: Increased expression
HMGA2; HCT116 cells, 5 mM DFMO, 72 h (FIG. 2A, 2C)
  HMGA2 protein levels: robust HMGA2 depletion; also recorded: lower HMGA2 levels
LIN28; HCT116 cells, 5 mM DFMO, 72 h (FIG. 2A)
  LIN28 protein levels: lowered levels of LIN28
Hmga2 3′ UTR; DFMO-treated mock cells compared to mock-untreated cells (FIG. 2B)
  HMGA2 luciferase activity: a reduction in HMGA2 luciferase was observed
Tumor putrescine levels
  decrease in tumor putrescine levels: 90%
[2]
  number of tumors harboring Ki-ras mutations: 36%

## anti-let-7 LNA: locked nucleic acid antisense oligo, phosphorothioate backbone, against let-7 seed region: ACTACCTC (SEQ ID NO: 1) (all phosphorothioate, sugars by position and methylation of C not given here; LNA oligo)
HMGA2; LNA transfected DFMO-treated HCT116 cells (FIG. 2C)
  HMGA2 protein in DFMO-treated cells: rescued
HMGA2; LNA transfected mock-treated HCT116 cells (FIG. 2C, 3C), listed as LNAs targeting let-7
  HMGA2 protein levels, cells without DFMO: increase in HMGA2 protein levels; also recorded: increased
LIN28; 25 nM anti-let-7 LNA, HCT116 cells (FIG. 3C)
  LIN28 expression: little effect
Hmga2 3′ UTR; 25 nM LNA, both DFMO treated and untreated HCT116 cells (FIG. 2B)
  wild-type Hmga2 3′ UTR luciferase activity: enhanced luciferase activity
Hmga2 3′ UTR; 25 nM LNA, irrespective of polyamine levels (FIG. 2B)
  mutated 3′ UTR Hmga2 luciferase activity: no observable effect

## NCCCCN [putrescine]
Colon cancer cells; exogenous putrescine supplementation of DFMO-treated cells (FIG. 1A)
  intracellular polyamine levels in DFMO-treated cells: restore intracellular polyamine levels
HCT116 cells; HCT116 cells, 50 μM putrescine with 5 mM DFMO (FIG. 1B)
  cellular proliferation of DFMO-treated cells: proliferation rates similar to control levels
hsa-let-7i; HCT116, putrescine after DFMO administration (FIG. 1D)
  let-7i levels in DFMO treated cells: rescued
hsa-let-7i; HCT116, putrescine alone (FIG. 1D)
  let-7i levels in cultures not treated with drug: no observable effect
LIN28; putrescine supplementation alone (FIG. 2A)
  LIN28 protein levels in non-drug treated cells: did not alter
LIN28; putrescine supplementation in DFMO treated cells (FIG. 2A)
  LIN28 protein levels in DFMO treated cells: LIN28 levels comparable to vehicle control; also recorded: rescued

## CC(C)Cc1ccc(C(C)C(=O)O)cc1 (stereo not shown) [ibuprofen]
Prostoglandin E2 (PGE2)
  prostoglandin E2 (PGE2) levels in flat mucosa: significant decrease
